Data from patent publication US10858308B2, “Compounds and compositions” (priority 2017, dated 2020).
Marks after values point to notes of the source that are not given here.

Assays:
[1] = system: Candida albicans ATCC 10231; assay: MIC by broth dilution assay, Candida albicans; assay type: cell-based; settings: 4 experiments, inoculum 3-6.5 × 10^3 cfu/ml, range bacteriostatic-bactericide concentration; for Sample's MIC: 37° C. 18-22 hours; for MIC: ATCC10231, 37° C. 18-22 hours, read-out: Sample's MIC
Protocol: (§1) Minimal inhibitory concentration (MIC) of each compound was tested by broth dilution assay.
(§2) • McFarland standard 0.5 • Falcon round-bottom 5 ml tubes • Disposable loops (1 μl and 10 μl) • Graduated pipettes (20 μl-1000 μl) • Disposable Petri dishes Media • Sterile normal saline • TSB (Tryptic Soy Broth) • TSA (Tryptic Soy Agar) Bacterial and Fungal strains • Salmonella enterica serovar Typhimurium ATCC 14028 • Staphylococcus aureus ATCC 6538 • Candida albicans ATCC 10231
(§3) Compounds 2, 3 and 4 were diluted in dimethyl sulfoxide (DMSO) at 10 mg/ml and were future 2-fold diluted for testing in TSB.
(§4) From a pure o/n culture, material from at least 3-4 colonies was chosen and suspended totally in 4 ml saline in tubes. The suspension was mixed.
(§5) The turbidity of inoculum was adjusted to match that of standard by comparing visually with the McFarland 0.5 standard using white paper with black lines as background.
(§6) The McFarland 0.5 suspension were diluted as follows for the species tested at this course:
(§7) The suspensions were used for inoculation within 15 minutes.
(§8) The Falcon round-bottom 5 ml tubes were inoculated with 500 μl of the inoculum suspension with 500 μl two-fold dilutions of antimicrobial agent using a graduated pipette
(§9) Tubes were sealed and incubated at 37° C. for 18-22 hours. This was done to avoid losing growth media and to avoid cross contamination.
(§10) McFarland 0.5 is approximately 10^8 CFU/ml. Standardization of inoculum is essential because the interpretation of the results is based on a certain inoculum.
(§11) Each tube contained approximately 5×10^5-1×10^6 CFU/ml after inoculation of bacteria and […] 5×10^3-1×10^4 CFU/ml of yeast.
(§12) Purity of the inoculum suspension was checked.
(§13) Growth in the 3 positive control tubes was checked.
(§14) Minimal inhibitory concentration (MIC) was recorded as the lowest concentration of antimicrobial agent with no visible growth.

[2] = system: Staphylococcus aureus ATCC 6538; assay: MIC by broth dilution assay, Staphylococcus aureus; assay type: cell-based; settings: ATCC6538, 37° C. 18-22 hours, 4 experiments, inoculum 1.2-2.1 × 10^6 cfu/ml, range bacteriostatic-bactericide concentration, read-out: Sample's MIC
Protocol: as §1, §2, §3, §4, §5, §6
Gr-pos.: 50 μl McFarl. 0.5 into 10 ml broth
as §7
The Falcon round-bottom 5 ml tubes were inoculated with 500 μl of the inoculum suspension with 500 μl two-fold dilutions of antimicrobial agent using a graduated pipette […]
as §14

[3] = system: Salmonella enterica serovar Typhimurium ATCC 14028; assay: MIC by broth dilution assay, Salmonella Typhimurium; assay type: cell-based; settings: for MIC: Salmonella enterica, read-out: Sample's MIC
Protocol: as §1, §2, §3, §4, §5, §6
Gr-neg.: 10 μl McFarl. 0.5 into 10 ml broth
as §7, §8, §9, §10, §11, §12, §13, §14

[4] = system: Herpes Simplex virus-1 (HSV 1); assay: HSV 1 spread and plaque assay in Vero cells
[5] = system: Vaccinia virus (WR-VV); assay type: cell-based; parameters: dose or concentration left out as unconfirmed; settings: BSC 40 cells pre-treated
[6] = pH of aqueous solution; assay type: physicochemical
[7] = Surfactant activity; assay type: physicochemical
[8] = in the presence of 100 μg/ml of the compounds
[9] = in the presence of the compounds

Cc1ccc(C(C)C)c(OC(=O)C[N+](C)(C)CCCCCCCCCC[N+](C)(C)CC(=O)Oc2cc(C(C)C)ccc2C)c1 [Compound 2, N^1-{2-[2-methyl-5-(propan-2-yl)phenoxy]-2-oxoethyl}-N^1,N^1,N^10,N^10-tetramethyl-N^10-{2-[5-methyl-2-(propan-2-yl)phenoxy]-2oxoethyl}decane-1,10-bis(aminium) dichloride]
Sample's MIC [1]: 62.5-125* μg/ml | MIC [1]: 62.5 to 125 µg/mL | MIC [2]: 31.2 to 62.5 µg/mL | MIC [3]: 62.5 to 125 µg/mL | melting point: 92 to 96 °C | HSV-1 infectivity reduced by [4, 8]: 80% | HSV-1 infectivity reduced by [4, 9]: 50%

N^1-{2-[2-methyl-5-(propan-2-yl)phenoxy]-2-oxoethyl}-N^1,N^1,N^10,N^10-tetramethyl-N^10-{2-[5-methyl-2-(propan-2-yl)phenoxy]-2oxoethyl}decane-1,10-bis(aminium) dichloride [Compound 4]
Sample's MIC [1]: 31.25 to 62.5 µg/mL | Sample's MIC ([3]; Salmonella enterica serovar Typhimurium ATCC 14028, broth dilution, 37° C. 18-22 hours, 4 experiments, inoculum 5 × 10^3 cfu/ml, range bacteriostatic-bactericide concentration): 31.25 to 62.5 µg/mL

Cc1ccc(C(C)C)c(OC(=O)C[N+](C)(C)CCCCCCCCCC[N+](C)(C)CCCCCCCCCC[N+](C)(C)CC(=O)Oc2cc(C(C)C)ccc2C)c1 [Compound 3, N^1-{{2-[2-methyl-5-(propan-2-yl)phenoxy]-(2-oxoethyldimethyl)azaniumyl bromide}decyl}-N^10-{2-[5-methyl-2-(propan-2-yl)phenoxy]-2oxoethyl}-N^1,N^1,N^1,N^10,N^10-tetramethyldecane-1,10-bis(aminium) dichloride]
MIC [1]: 31.2 to 62.5 µg/mL | MIC [2]: 15.6 to 31.2 µg/mL | MIC [3]: 31.2 to 62.5 µg/mL | inhibition of Vaccinia virus plaque formation [5]: none of compounds 2 or 3 inhibited Vaccinia virus (VV) plaque formation | Aqueous solution pH [6]: 7.2 | Surfactant activity [7]: Displays Surfactant Activity | HSV-1 infectivity reduced by [4, 8]: 80% | HSV-1 infectivity reduced by [4, 9]: 50% | inhibitory effect on HSV 1 spreading and plaque number ([4]; pre-treated, liquid and agar plaque assay, two days of infection, dose dependent): strong inhibitory effect
